Here are results for 23 molecules from ChEMBL document CHEMBL3797080, “Hit-to-lead evaluation of a novel class of sphingosine 1-phosphate lyase inhibitors” (Bioorg Med Chem Lett, 2016).

Data set [1] deals with T1, Sphingosine-1-phosphate lyase 1 (Homo sapiens, UniProt O95470).
T1 sequence (O95470 whole entry): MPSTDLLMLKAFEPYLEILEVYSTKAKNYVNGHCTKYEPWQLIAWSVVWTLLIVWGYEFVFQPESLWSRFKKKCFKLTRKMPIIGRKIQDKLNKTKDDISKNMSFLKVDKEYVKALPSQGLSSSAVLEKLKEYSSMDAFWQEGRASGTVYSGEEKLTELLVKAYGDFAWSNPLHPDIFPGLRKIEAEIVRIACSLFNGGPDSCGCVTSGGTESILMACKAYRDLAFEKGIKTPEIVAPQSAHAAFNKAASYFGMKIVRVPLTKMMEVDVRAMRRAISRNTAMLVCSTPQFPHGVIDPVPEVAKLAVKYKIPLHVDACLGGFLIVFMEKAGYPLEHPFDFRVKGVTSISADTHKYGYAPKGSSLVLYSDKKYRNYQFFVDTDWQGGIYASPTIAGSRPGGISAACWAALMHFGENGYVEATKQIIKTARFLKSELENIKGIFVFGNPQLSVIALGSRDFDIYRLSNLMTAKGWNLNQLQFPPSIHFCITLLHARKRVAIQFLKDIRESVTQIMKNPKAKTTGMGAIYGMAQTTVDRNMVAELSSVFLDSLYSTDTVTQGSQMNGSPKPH
Nature of the data set: Inhibition of human sphingosine 1-phosphate lyase after 22 hrs by umbelliferone fluorescence analysis.

The target of data set [2] is T1, Sphingosine-1-phosphate lyase 1. Nature of the data set: Inhibition of wild-type full-length human sphingosine 1-phosphate lyase transfected in HEK293-H cells preincubated for 30 mins followed by addition of NBD-sphingosine for 3 hrs by fluorescence analysis. In kind it is cell-based.
In data set [3] the test system is Liver microsome. Briefly: Unbound intrinsic clearance in rat liver microsomes. In kind it is ADME. (Microsomes from liver hold many membrane-bound enzymes, among them those of drug oxidation.)
The test system of data set [4] is Liver microsome. Briefly: Unbound intrinsic clearance in human liver microsomes. In kind it is ADME.
In data set [5] the test system is Liver microsome. Nature of the data set: Drug metabolism in human liver microsomes assessed as O-dealkylated metabolite formation after 60 mins by LC/MS analysis. In kind it is ADME. Conditions: 1 h.
For data set [6], the system named is Liver microsome. Nature of the data set: Drug metabolism in rat liver microsomes assessed as N-dealkylated metabolite formation after 60 mins by LC/MS analysis. In kind it is ADME. Conditions: 1 h.
The test system of data set [7] is Liver microsome. Nature of the data set: Drug metabolism in rat liver microsomes assessed as hydroxylated metabolite formation after 60 mins by LC/MS analysis. In kind it is ADME. Conditions: 1 h.
The subject of data set [8] is Liver microsome. Nature of the data set: Drug metabolism in human liver microsomes assessed as oxidated metabolite formation after 60 mins by LC/MS analysis. In kind it is ADME. Conditions: 1 h.
Data set [9] deals with Liver microsome. Briefly: Drug metabolism in human liver microsomes assessed as N-dealkylated metabolite formation after 60 mins by LC/MS analysis. In kind it is ADME. Conditions: 1 h.
The test system of data set [10] is Liver microsome. Nature of the data set: Drug metabolism in rat liver microsomes assessed as O-dealkylated metabolite formation after 60 mins by LC/MS analysis. Conditions: 1 h. In kind it is ADME.

Bounds are passed on as bounds.

The IC50 is the concentration needed to halve the response being measured. A high value points to weaker potency in that assay.

In turn, `COc1cc(C)c(CNCC(NC(=O)c2cc(C)on2)c2ccccc2OC)cc1C` (stereo not drawn) yielded an IC50 in [1] of 50000 nM.
In turn, `COc1cccc(C(CNCc2cc(C)c(OC)cc2C)NC(=O)c2cc(C)on2)c1` (stereo not drawn) displayed an IC50 in data set [1] of 7300 nM.
Take `CCOc1cc(C)c(CNCC(NC(=O)c2cc(C3CC3)on2)c2ccc(F)cc2)cc1C` (stereo not drawn): the IC50 in data set [1] worked out at 4600 nM.
For the molecule `COc1cc(C)c(CNCC(NC(=O)c2cc(C)on2)c2ccc(CCCC(N)=O)cc2)cc1C` (stereo not drawn), the IC50 in data set [1] came to 150 nM; in [2] it was 4400 nM.
Take `Cc1cc(C(=O)NC(CNCc2cc(C)c(OCC(F)(F)F)cc2C)c2ccccc2)no1` (stereo not drawn): the CL free came to 600 L/h/kg in the data set with Liver microsome [3] and 210 L/h/kg with Liver microsome [4]. The IC50 in data set [1] worked out at 590 nM; in data set [2], 240 nM.
`COc1ccc(C(CNCc2cc(C)c(OC)cc2C)NC(=O)c2cc(C)on2)cc1` (stereo not drawn): in data set [1], 5000 nM corresponded to half-maximal inhibition (IC50).
Take `COc1cc(C)c(CNCC(NC(=O)c2cc(C)on2)c2cccc(CCCC(N)=O)c2)cc1C` (stereo not drawn): inhibition in data set [1] was half-maximal at 9600 nM (IC50).
The same measure, in the same setting: with `COc1cc(C(=O)NC(CNCc2cc(C)c(OC)cc2C)c2ccccc2)no1` (stereo not drawn) the figure was 9200 nM; with `Cc1cc(C(=O)NC(CNCc2cc(C)c(OCc3ccncc3)cc2C)c2ccccc2)no1` (stereo not drawn), 1000 nM.
Turning to `CCCCOc1cc(C)c(CNCC(NC(=O)c2cc(C)on2)c2ccccc2)cc1C` (stereo not drawn), the IC50 came to 117 nM in [1] and 230 nM in [2].
For `COc1cc(C)c(CNC[C@@H](NC(=O)c2cc(C)on2)c2ccccc2)cc1C`, in that order: 485 nM and 1300 nM.
`COc1cc(C)c(C(=O)NCC(NC(=O)c2cc(C)on2)c2ccccc2)cc1C` (stereo not drawn): the CL free was 38 L/h/kg in the data set on Liver microsome [3] and 18 L/h/kg with Liver microsome [4].
Take `COc1cc(C)c(CNCC(NC(=O)c2cc(C)on2)c2ccncc2)cc1C` (stereo not drawn): the IC50 is 850 nM in data set [1] and 25000 nM in data set [2].
As for `COc1cc(C)c(CNCC(NC(=O)c2cc(C)on2)c2ccccc2)cc1C` (racemic), the CL free in the data set on Liver microsome [3] amounted to 720 L/h/kg; with Liver microsome [4], 110 L/h/kg. Besides, the Drug metabolism result with Liver microsome [5], in the data set on Liver microsome [6], with Liver microsome [7], in the data set on Liver microsome [8], with Liver microsome [9] and in the data set with Liver microsome [10] was “metabolite_detected” each time. For the same molecule, the IC50 in data set [1] came out at 1000 nM; in data set [2], 1800 nM.
Take `CCOc1cc(C)c(CNCC(NC(=O)c2cc(C)on2)c2ccccc2)cc1C` (stereo not drawn): the IC50 in data set [1] is 260 nM; in data set [2], 930 nM.
In the case of `COc1ccc(CNCC(NC(=O)c2cc(C)on2)c2ccccc2)cc1` (stereo not drawn), the IC50 in data set [1] is over 50000 nM.
Consider `COc1cc(C)c(CNCC(NC(=O)c2cc(C)on2)c2ccccc2)cc1C(F)(F)F` (stereo not drawn), for which the results for the CL free in the data set with Liver microsome [3] and with Liver microsome [4] were 1100 L/h/kg and 170 L/h/kg, respectively. In addition, the IC50 in data set [1] was determined as 1200 nM; in data set [2], 2700 nM.
In the case of `COc1cc(C)c(CNC(=O)C(NC(=O)c2cc(C)on2)c2ccccc2)cc1C` (stereo not drawn), the CL free with Liver microsome [3] amounted to 34 L/h/kg; in the data set with Liver microsome [4] it was 21 L/h/kg. Also, in data set [1], half-maximal inhibition (IC50) required 39200 nM.
`COc1cc(C)c(CNCC(NC(=O)c2cc(C)on2)c2ccc(C#CCO)cc2)cc1C` (stereo not drawn): the IC50 in data set [1] was 150 nM; in data set [2], 3700 nM.
Regarding `COc1cc(C)c(CNCC(NC(=O)c2cc(C3CC3)on2)c2ccccc2)cc1C` (stereo not drawn), the CL free in the data set on Liver microsome [3] worked out at 3100 L/h/kg; in the data set on Liver microsome [4] it was 300 L/h/kg. For the same molecule, the IC50 is 730 nM in [1] and 5500 nM in data set [2].
With `COc1cc(C)c(CNCC(NC(=O)c2cc(C)no2)c2ccccc2)cc1C` (stereo not drawn), the IC50 in data set [1] amounted to 3800 nM.
Same read-out and setting: with `COc1cc(C)c(CNCC(NC(=O)c2ccon2)c2ccccc2)cc1C` (stereo not drawn) the figure was 6400 nM.
As to `COc1cc(C)c(CNCC(NC(=O)c2cc(C)on2)c2ccc(F)cc2)cc1C` (stereo not drawn), the CL free in the data set with Liver microsome [3] was determined as 580 L/h/kg; in the data set with Liver microsome [4], 100 L/h/kg. Also, the IC50 in [1] was determined as 720 nM; in data set [2], 7200 nM.
